“Also recorded” adds a separate entry of the source. Blank lines part the entries; values can stand above or below the molecule they belong to. Numbered stars: 1 amine (or outer) side, 2 acyl side, 3 side chain; on linkers, the order of the positions; unused ones are H or OH. Bridge positions count the residues as written; N and C are the ends. Square brackets hold non-standard residues; d marks the D form. Peptide text beside a SMILES is read from it. * marks the point of attachment. X3 = COc1cc2cc(c1Cl)N(C)C(=O)C[C@H](OC(=O)[C@H](C)N(C)C(=O)CCSSCCCC(=O)*)[C@]1(C)O[C@H]1[C@H](C)[C@@H]1C[C@@](O)(NC(=O)O1)[C@H](OC)/C=C/C=C(\C)C2; 5FAM = O=C1OC2(c3ccc(O)cc3Oc3cc(O)ccc32)c2ccc(C(=O)*)cc21; 1Nal = N[C@@H](Cc1cccc2ccccc12)C(=O)O; TBMB = c1c(C[*:1])cc(C[*:3])cc1C[*:2]; Tle = CC(C)(C)[C@H](N)C(=O)O; βAla = NCCC(=O)O; Sar = CNCC(=O)O
Legend:
MT1-MMP hemopexin domain [1] = target: T1, MT1-MMP hemopexin domain (Homo sapiens, UniProt P50281); experiment: Direct binding fluorescence polarisation (FP) assay
T1 construct: residues Cys319-Gly511 from the human gene; His6 (N); made in house; host or cells: HEK293 (transient), pEXPR-IBA42 vector
Experimental: Direct Binding Fluorescence Polarisation or Anisotropy Assays are performed by titrating a constant concentration of fluorescent tracer (here, the fluoresceinated bicyclic peptide to be studied) with its binding partner (here, the MT1-MMP hemopexin domain). As the concentration of binding partner increases during the titration, the polarisation signal changes in proportion to the fraction of bound and unbound material. This allows determination of […] (Kd) quantitatively. Assay data can be fit using standard ligand binding equations.
The titrant (binding partner) concentration is varied from 0.1 nM up to typically 5 μM. The range is chosen such that the maximum change in fluorescent polarisation can be observed. Buffers employed are phosphate buffered saline in the presence of 0.01% Tween. Experiments were run in black 384 well low-bind/low volume plates (Corning 3820), and the fluorescent polarisation signal was measured using a BMG Pherastar FS plate reader.
Fluorescent tracers referred to in the text are bicyclic peptides that have been fluoresceinated using 5,6-carboxyfluorescein. Fluoresceination may be performed on the N-terminal amino group of the peptide, which is separated from the bicycle core sequence by a sarcosine spacer (usually Sar5). This can be done during Fmoc solid phase synthesis or post-synthetically (after cyclisation with TBMB and purification) if the N-terminal amino group is unique to the peptide. Fluoresceination can also be performed on the C-terminus, usually on a Lysine introduced as the first C-terminal residue, which is then separated from the bicycle core sequence by a sarcosine spacer (usually Sar6). Thus, N-terminal tracers can have a molecular format described as Fluo-Gly-Sar5-A(BicycleCoreSequence), and (BicycleCoreSequence)-A-Sar6-K(Fluo) for a C-terminally fluoresceinated construct. Fluorescent tracers used in the Examples are A-(17-69)-A-Sar6-K(Fluo), A-(17-69-07)-A-Sar6-K(Fluo), and A-(17-69-12)-A-Sar6-K(Fluo). Due to the acidic nature of the 17-69 fluorescent peptides, they were typically prepared as concentrated DMSO stocks, from which dilution were prepared in 100 mM Tris pH 8 buffer.

MT1-MMP hemopexin domain [2] = target: T1, MT1-MMP hemopexin domain; experiment: Competition assay using fluorescence polarisation; type: binding
Method in brief: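 Pre-formed PEX–fluorescent tracer complex titrated with non-fluoresceinated bicyclic peptide, which displaces tracer and lowers fluorescence polarisation. Competitor Kd obtained by fitting to the cubic-equation solution for tracer/titrant/protein equilibria, using tracer Kd from separate direct-binding FP.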

[3] = Plasma stability, quantitative LC-MS (Method #2); type: in vitro ADME, human; settings: Table 16; incubation up to 24 hrs, 4 μM
Experimental: (§1) […] […] Prior to LC-MS analysis, samples were defrosted, and mixed with 3 volumes (here, 120 μL) of 1:1 acetonitrile/MeOH water. The milky suspensions were centrifuged for 30 min at 13000 rpm, and peptide-containing supernatants were quantitated for doubly/triply charged species and MS/MS fragments thereof using a Waters Xevo TQ-D instrument, while using a plasma extracted standard curve of the same peptides as a reference. The half-life of degradation in plasma was used to assess the comparative stability of the molecules.

[4] = Plasma stability, quantitative LC-MS (Method #2); type: in vitro ADME, mouse; settings: Table 16; incubation up to 24 hrs, 4 μM
Experimental: as §1

[5] = Plasma stability, quantitative LC-MS; type: in vitro ADME, rat; settings: Table 16; incubation up to 24 hrs, 4 μM
[6] = test system: HT-1080 xenograft tumours; experiment: Efficacy in HT-1080 xenograft mice; type: in vivo, mouse; settings: HT1080 xenograft
Experimental: Balb/c nude mice bearing subcutaneous HT-1080 xenograft tumours were treated with BDCs or vehicle (PBS). BDCs were dosed 3 times weekly for 2 weeks, dosing initiated when tumours measured approx. 150-200 mm^3. Mice were monitored, and measurements of tumour volume and body weight recorded 3 times a week.

[7] = Table 2, FP method Direct Binding, read-out: Kd

Kd (MT1-MMP hemopexin domain [1]; Table 14, fluoresceinated derivative, read-out: V1T1-MMP (=MMP-14) (Kd, in nM)): 2.2 nM
SMILES: C[C@H](NC(=O)CN(C)C(=O)CN(C)C(=O)CN(C)C(=O)CN(C)C(=O)CN(C)C(=O)CN(C)C(=O)CN(C)C(=O)CN(C)C(=O)CN(C)C(=O)CN(C)C(=O)CCNC(=O)c1ccc2c(c1)C(=O)OC21c2ccc(O)cc2Oc2cc(O)ccc21)C(=O)N[C@H]1CSCc2cc3cc(c2)CSC[C@H](NC(=O)[C@@H](C)NC(=O)[C@H](Cc2cccc4ccccc24)NC(=O)[C@H](CCC(=O)O)NC(=O)[C@H](CC(N)=O)NC(=O)[C@@H](C)NC1=O)C(=O)N[C@@H](CCC(=O)O)C(=O)N[C@@H](CC(=O)O)C(=O)N[C@@H](Cc1ccccc1)C(=O)N[C@@H](Cc1ccc(O)cc1)C(=O)N[C@@H](CC(=O)O)C(=O)N[C@@H](C(C)(C)C)C(=O)N[C@H](C(N)=O)CSC3 [17-69-07-N258, Fluorescein-(bAla)-Sar10-A-(17-69-07) D-Ala1 1Nal4 D-Ala5 tBuGly11] ({5FAM-βAla}-[Sar][Sar][Sar][Sar][Sar][Sar][Sar][Sar][Sar][Sar]AC[dA]NE[1Nal][dA]CEDFYD[Tle]C-NH2; linker 12-18-25 via TBMB)

SMILES: C[C@H](NC(=O)CN(C)C(=O)CN(C)C(=O)CN(C)C(=O)CN(C)C(=O)CN(C)C(=O)CN(C)C(=O)CN(C)C(=O)CN(C)C(=O)CN(C)C(=O)CN(C)C(=O)CCN)C(=O)N[C@H]1CSCc2cc3cc(c2)CSC[C@H](NC(=O)[C@@H](C)NC(=O)[C@H](Cc2cccc4ccccc24)NC(=O)[C@H](CCC(=O)O)NC(=O)[C@H](CC(N)=O)NC(=O)[C@@H](C)NC1=O)C(=O)N[C@@H](CCC(=O)O)C(=O)N[C@@H](CC(=O)O)C(=O)N[C@@H](Cc1ccccc1)C(=O)N[C@@H](Cc1ccc(O)cc1)C(=O)N[C@@H](CC(=O)O)C(=O)N[C@@H](C(C)(C)C)C(=O)N[C@H](C(N)=O)CSC3 [17-69-07-N241, bAla-Sar10-A-(17-69-07) D-Ala1 1Nal4 D-Ala5 tBuGly11] (H-[βAla][Sar][Sar][Sar][Sar][Sar][Sar][Sar][Sar][Sar][Sar]AC[dA]NE[1Nal][dA]CEDFYD[Tle]C-NH2; linker 13-19-26 via TBMB)
Kd (MT1-MMP hemopexin domain [2]; Table 12, molecules selected for plasma stability assessment, read-out: Kd): 1.21 ± 0.24 nM | Kd (MT1-MMP hemopexin domain [2]; Table 16, footnote e: 17-69-07-N004 as tracer in FP competition, read-out: Kd (nM) (Hemopexin domain)): 1.4 ± 0.3 nM | species cross-reactivity (MT1-MMP hemopexin domain [2]; murine, dog, cynomolgus and human MT1-MMP): fully cross reactive | t1/2 (hrs) (human plasma) [3]: >36 h | t1/2 (hrs) (mouse plasma) [4]: >36 h | t1/2 (hrs) (rat plasma) [5]: >36 h

SMILES: CC[C@H](C)[C@@H]1NC(=O)[C@H](CC(=O)O)NC(=O)[C@H](Cc2ccc(O)cc2)NC(=O)[C@H](Cc2ccccc2)NC(=O)[C@H](CC(=O)O)NC(=O)[C@H](CCC(=O)O)NC(=O)[C@@H]2CSCc3cc(cc(c3)CSC[C@@H](C(=O)N[C@@H](C)C(=O)N(C)CC(=O)N(C)CC(=O)N(C)CC(=O)N(C)CC(=O)N(C)CC(=O)N(C)CC(=O)N[C@@H](CCCCNC(=O)c3ccc4c(c3)C(=O)OC43c4ccc(O)cc4Oc4cc(O)ccc43)C(N)=O)NC1=O)CSC[C@H](NC(=O)[C@H](C)N)C(=O)N[C@@H](CCCCN)C(=O)N[C@@H](CC(N)=O)C(=O)N[C@@H](CCCNC(=N)N)C(=O)NCC(=O)N[C@@H](Cc1ccccc1)C(=O)NCC(=O)N2 [Peptide 17-69-N004, A-(17-69)-A-Sar6-K(Fl)] (H-ACKNRGFGCEDFYDICA[Sar][Sar][Sar][Sar][Sar][Sar]K(5FAM)-NH2; linker 2-9-16 via TBMB)
Kd (MT1-MMP hemopexin domain [1]; [7]): 692 nM

SMILES: CC[C@H](C)[C@@H]1NC(=O)[C@H](CC(=O)O)NC(=O)[C@H](Cc2ccc(O)cc2)NC(=O)[C@H](Cc2ccccc2)NC(=O)[C@H](CC(=O)O)NC(=O)[C@H](CCC(=O)O)NC(=O)[C@@H]2CSCc3cc(cc(c3)CSC[C@@H](C(=O)N[C@@H](C)C(=O)N(C)CC(=O)N(C)CC(=O)N(C)CC(=O)N(C)CC(=O)N(C)CC(=O)N(C)CC(=O)N[C@@H](CCCCNC(=O)c3ccc4c(c3)C(=O)OC43c4ccc(O)cc4Oc4cc(O)ccc43)C(N)=O)NC1=O)CSC[C@H](NC(=O)[C@H](C)N)C(=O)N[C@@H](Cc1ccc(O)cc1)C(=O)N[C@@H](CC(N)=O)C(=O)N[C@@H](CCC(=O)O)C(=O)N[C@@H](Cc1ccccc1)C(=O)NCC(=O)N2 [17-69-07-N040, A-(17-69-07)-A-Sar6-K(Fl)] (H-ACYNEFGCEDFYDICA[Sar][Sar][Sar][Sar][Sar][Sar]K(5FAM)-NH2; linker 2-8-15 via TBMB)
Kd (MT1-MMP hemopexin domain [1]; [7]): 0.52 nM

SMILES: CC[C@H](C)[C@@H]1NC(=O)[C@H](CC(=O)O)NC(=O)[C@H](Cc2ccc(O)cc2)NC(=O)[C@H](Cc2ccccc2)NC(=O)[C@H](CC(=O)O)NC(=O)[C@H](CCC(=O)O)NC(=O)[C@@H]2CSCc3cc(cc(c3)CSC[C@H](NC(=O)[C@H](C)NC(=O)CN(C)C(=O)CN(C)C(=O)CN(C)C(=O)CN(C)C(=O)CN(C)C(=O)CN(C)C(=O)CN(C)C(=O)CN(C)C(=O)CN(C)C(=O)CN(C)C(=O)CNC(=O)CCCSSCCC(=O)N(C)[C@@H](C)C(=O)O[C@H]3CC(=O)N(C)c4cc(cc(OC)c4Cl)C/C(C)=C/C=C/[C@@H](OC)[C@@]4(O)C[C@H](OC(=O)N4)[C@@H](C)[C@@H]4O[C@@]34C)C(=O)N[C@@H](Cc3ccc(O)cc3)C(=O)N[C@@H](CC(N)=O)C(=O)N[C@@H](CCC(=O)O)C(=O)N[C@@H](Cc3ccccc3)C(=O)NCC(=O)N2)CSC[C@@H](C(N)=O)NC1=O [BT17BDC-9] (X3-G[Sar][Sar][Sar][Sar][Sar][Sar][Sar][Sar][Sar][Sar]ACYNEFGCEDFYDIC-NH2; linker 13-19-26 via TBMB)
weight of the animals [6]: largely stable | tumour volume ([6]; compared to vehicle control, listed as BDC17BDC-9): significant reduction in tumour volume after 9 days post injection; also recorded: Tumours were completely cleared by day 14

SMILES: CC[C@H](C)[C@@H]1NC(=O)[C@H](CC(=O)O)NC(=O)[C@H](Cc2ccc(O)cc2)NC(=O)[C@H](Cc2ccccc2)NC(=O)[C@H](CC(=O)O)NC(=O)[C@H](CCC(=O)O)NC(=O)[C@@H]2CSCc3cc(cc(c3)CSC[C@@H](C(=O)N[C@@H](C)C(=O)N(C)CC(=O)N(C)CC(=O)N(C)CC(=O)N(C)CC(=O)N(C)CC(=O)N(C)CC(=O)N[C@@H](CCCCNC(=O)c3ccc4c(c3)C(=O)OC43c4ccc(O)cc4Oc4cc(O)ccc43)C(N)=O)NC1=O)CSC[C@H](NC(=O)[C@H](C)N)C(=O)N[C@@H](CCSC)C(=O)N[C@@H](CC(N)=O)C(=O)N[C@@H](CCC(N)=O)C(=O)N[C@@H](Cc1ccccc1)C(=O)NCC(=O)N2 [17-69-12-N005, A-(17-69-12)-A-Sar6-K(Fl)] (H-ACMNQFGCEDFYDICA[Sar][Sar][Sar][Sar][Sar][Sar]K(5FAM)-NH2; linker 2-8-15 via TBMB)
Kd (MT1-MMP hemopexin domain [1]; [7]): 3.1 nM

Reference: patent US10532106B2 (priority 2014, dated 2020)
